Tested on: 993429-296-R-J1-PDC complex spheroid growth, percent test/control
Assay: Anticancer human tumor 993429-296-R-J1-PDC patient-derived uterine sarcoma cell line growth inhibition [Asc]
Conditions: for IC50: curve of first compound; for viability, T/C: stronger effect = lower value
Summary of the method: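 Complex solid-tumor spheroids incorporating human endothelial and mesenchymal stem cells received single agents or combinations over half-log dilution ranges anchored to clinical Cmax.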
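Also: spheroids exposed to compounds for seven days.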

CCN1CCN(Cc2ccc(Nc3ncc(F)c(-c4cc(F)c5nc(C)n(C(C)C)c5c4)n3)nc2)CC1 + Cc1c(S(C)(=O)=O)c(-c2cc(F)cc(N3CCN(c4ccc(NS(=O)(=O)c5ccc(NC(CCN6CCC(C(=O)OCCCP(=O)(O)O)CC6)CSc6ccccc6)c(S(=O)(=O)C(F)(F)F)c5)cc4)CC3)c2)c(-c2ccc(Cl)cc2)n1C(C)C
IC50 (second compound 0.1 µM): > 1000 nM | IC50 (second compound 0.316 µM): 859 nM | IC50 (second compound 1 µM): 344 nM | IC50 (second compound 3.16 µM): < 3.16 nM | IC50 (second compound 10 µM): 463 nM | viability, T/C (second compound 0.1 µM, first compound 0.00316 µM): 70.2% | viability, T/C (second compound 0.1 µM, first compound 0.01 µM): 81.9% | viability, T/C (second compound 0.1 µM, first compound 0.0316 µM): 64.3% | viability, T/C (second compound 0.1 µM, first compound 0.1 µM): 60.6% | viability, T/C (second compound 0.1 µM, first compound 0.316 µM): 85% | viability, T/C (second compound 0.1 µM, first compound 1 µM): 50.7% | viability, T/C (second compound 0.316 µM, first compound 0.00316 µM): 54.2% | viability, T/C (second compound 0.316 µM, first compound 0.01 µM): 55.5% | viability, T/C (second compound 0.316 µM, first compound 0.0316 µM): 63.5% | viability, T/C (second compound 0.316 µM, first compound 0.1 µM): 64.7% | viability, T/C (second compound 0.316 µM, first compound 0.316 µM): 64.3% | viability, T/C (second compound 0.316 µM, first compound 1 µM): 32.5% | viability, T/C (second compound 1 µM, first compound 0.00316 µM): 48.1% | viability, T/C (second compound 1 µM, first compound 0.01 µM): 52.4% | viability, T/C (second compound 1 µM, first compound 0.0316 µM): 49.5% | viability, T/C (second compound 1 µM, first compound 0.1 µM): 58.7% | viability, T/C (second compound 1 µM, first compound 0.316 µM): 55% | viability, T/C (second compound 1 µM, first compound 1 µM): 16.5% | viability, T/C (second compound 3.16 µM, first compound 0.00316 µM): 37.3% | viability, T/C (second compound 3.16 µM, first compound 0.01 µM): 45.3% | viability, T/C (second compound 3.16 µM, first compound 0.0316 µM): 46.6% | viability, T/C (second compound 3.16 µM, first compound 0.1 µM): 41.8% | viability, T/C (second compound 3.16 µM, first compound 0.316 µM): 38.7% | viability, T/C (second compound 3.16 µM, first compound 1 µM): 16.2% | viability, T/C (second compound 10 µM, first compound 0.00316 µM): 70.5% | viability, T/C (second compound 10 µM, first compound 0.01 µM): 67.4% | viability, T/C (second compound 10 µM, first compound 0.0316 µM): 71.2% | viability, T/C (second compound 10 µM, first compound 0.1 µM): 76.9% | viability, T/C (second compound 10 µM, first compound 0.316 µM): 67.4% | viability, T/C (second compound 10 µM, first compound 1 µM): 14%

C=C(F)C(=O)N1CCN(c2nc(OCC3CCCN3C)nc3c2CCN(c2cccc4cccc(Cl)c24)C3)CC1CC#N (stereo not given) + CCN1C(C(=O)NC23CCC(C(=O)O)(CC2)CC3)C(c2cccc(Cl)c2F)C2(C(=O)Nc3cc(Cl)ccc32)C12CCCCC2
IC50 (second compound 0.03 µM): 1100 nM | IC50 (second compound 0.0949 µM): 1200 nM | IC50 (second compound 0.3 µM): 1010 nM | IC50 (second compound 0.949 µM): 1300 nM | IC50 (second compound 3 µM): 1580 nM | viability, T/C (second compound 0.03 µM, first compound 0.0316 µM): 97.6% | viability, T/C (second compound 0.03 µM, first compound 0.1 µM): 95.3% | viability, T/C (second compound 0.03 µM, first compound 0.316 µM): 103% | viability, T/C (second compound 0.03 µM, first compound 1 µM): 54% | viability, T/C (second compound 0.03 µM, first compound 3.16 µM): 7.9% | viability, T/C (second compound 0.03 µM, first compound 10 µM): 0.1% | viability, T/C (second compound 0.0949 µM, first compound 0.0316 µM): 98.4% | viability, T/C (second compound 0.0949 µM, first compound 0.1 µM): 98.2% | viability, T/C (second compound 0.0949 µM, first compound 0.316 µM): 85.2% | viability, T/C (second compound 0.0949 µM, first compound 1 µM): 59.8% | viability, T/C (second compound 0.0949 µM, first compound 3.16 µM): 8.82% | viability, T/C (second compound 0.0949 µM, first compound 10 µM): 0.11% | viability, T/C (second compound 0.3 µM, first compound 0.0316 µM): 89.2% | viability, T/C (second compound 0.3 µM, first compound 0.1 µM): 104% | viability, T/C (second compound 0.3 µM, first compound 0.316 µM): 105% | viability, T/C (second compound 0.3 µM, first compound 1 µM): 50.5% | viability, T/C (second compound 0.3 µM, first compound 3.16 µM): 10.4% | viability, T/C (second compound 0.3 µM, first compound 10 µM): 0.1% | viability, T/C (second compound 0.949 µM, first compound 0.0316 µM): 93% | viability, T/C (second compound 0.949 µM, first compound 0.1 µM): 88.3% | viability, T/C (second compound 0.949 µM, first compound 0.316 µM): 78.2% | viability, T/C (second compound 0.949 µM, first compound 1 µM): 63.9% | viability, T/C (second compound 0.949 µM, first compound 3.16 µM): 5.95% | viability, T/C (second compound 0.949 µM, first compound 10 µM): 0.11% | viability, T/C (second compound 3 µM, first compound 0.0316 µM): 107% | viability, T/C (second compound 3 µM, first compound 0.1 µM): 86.2% | viability, T/C (second compound 3 µM, first compound 0.316 µM): 81.7% | viability, T/C (second compound 3 µM, first compound 1 µM): 78.1% | viability, T/C (second compound 3 µM, first compound 3.16 µM): 7.46% | viability, T/C (second compound 3 µM, first compound 10 µM): 0.15%
